Measurements reported in ChEMBL document CHEMBL5678818, “Discovery of potent SOS1 inhibitors that block RAS activation via disruption of the RAS-SOS1 interaction” (Proc Natl Acad Sci U S A, 2019).

What was measured:
[1] = target: Death-associated protein kinase 3 (Homo sapiens) (UniProt O43293); assay: Inhibition of DAPK3 (unknown origin) assessed as residual activity at 1000 nM by KINOMEscan analysis relative to control
[2] = target: Ribosomal protein S6 kinase alpha-4 (Homo sapiens) (UniProt O75676); assay: Inhibition of N-terminal RPS6KA4 […] domain 1 (unknown origin) assessed as residual activity at 1000 nM by KINOMEscan analysis relative to control
Chain of Ribosomal protein S6 kinase alpha-4 (Homo sapiens) (O75676 whole entry, looked up): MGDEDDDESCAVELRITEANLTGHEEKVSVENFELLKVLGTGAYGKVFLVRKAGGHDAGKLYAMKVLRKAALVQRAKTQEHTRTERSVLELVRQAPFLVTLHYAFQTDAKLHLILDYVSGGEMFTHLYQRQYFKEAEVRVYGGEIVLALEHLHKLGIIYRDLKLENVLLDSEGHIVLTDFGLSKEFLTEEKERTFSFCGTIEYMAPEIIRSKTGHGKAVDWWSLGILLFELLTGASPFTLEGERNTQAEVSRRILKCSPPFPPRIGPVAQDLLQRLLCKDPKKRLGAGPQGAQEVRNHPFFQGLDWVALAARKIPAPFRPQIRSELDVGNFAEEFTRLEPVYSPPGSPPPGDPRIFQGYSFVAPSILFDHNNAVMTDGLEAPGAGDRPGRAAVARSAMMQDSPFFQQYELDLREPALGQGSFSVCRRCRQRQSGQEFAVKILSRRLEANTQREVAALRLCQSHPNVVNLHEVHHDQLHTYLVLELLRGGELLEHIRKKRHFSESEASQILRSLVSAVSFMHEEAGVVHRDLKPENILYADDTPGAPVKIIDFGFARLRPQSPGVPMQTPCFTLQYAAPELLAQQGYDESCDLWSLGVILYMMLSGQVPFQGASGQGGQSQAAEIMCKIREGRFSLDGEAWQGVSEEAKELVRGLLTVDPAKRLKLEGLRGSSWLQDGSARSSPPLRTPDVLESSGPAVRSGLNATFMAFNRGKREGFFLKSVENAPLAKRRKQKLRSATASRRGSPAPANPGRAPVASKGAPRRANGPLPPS

[3] = target: Receptor-type tyrosine-protein kinase FLT3 (Homo sapiens) (UniProt P36888); assay: Inhibition of autoinhibited FLT3 (unknown origin) assessed as residual activity at 1000 nM by KINOMEscan analysis relative to control
[4] = target: Serine/threonine-protein kinase tousled-like 2 (Homo sapiens) (UniProt Q86UE8); assay: Inhibition of TLK2 (unknown origin) assessed as residual activity at 1000 nM by KINOMEscan analysis relative to control
Chain of Serine/threonine-protein kinase tousled-like 2 (Homo sapiens) (Q86UE8 whole entry, looked up): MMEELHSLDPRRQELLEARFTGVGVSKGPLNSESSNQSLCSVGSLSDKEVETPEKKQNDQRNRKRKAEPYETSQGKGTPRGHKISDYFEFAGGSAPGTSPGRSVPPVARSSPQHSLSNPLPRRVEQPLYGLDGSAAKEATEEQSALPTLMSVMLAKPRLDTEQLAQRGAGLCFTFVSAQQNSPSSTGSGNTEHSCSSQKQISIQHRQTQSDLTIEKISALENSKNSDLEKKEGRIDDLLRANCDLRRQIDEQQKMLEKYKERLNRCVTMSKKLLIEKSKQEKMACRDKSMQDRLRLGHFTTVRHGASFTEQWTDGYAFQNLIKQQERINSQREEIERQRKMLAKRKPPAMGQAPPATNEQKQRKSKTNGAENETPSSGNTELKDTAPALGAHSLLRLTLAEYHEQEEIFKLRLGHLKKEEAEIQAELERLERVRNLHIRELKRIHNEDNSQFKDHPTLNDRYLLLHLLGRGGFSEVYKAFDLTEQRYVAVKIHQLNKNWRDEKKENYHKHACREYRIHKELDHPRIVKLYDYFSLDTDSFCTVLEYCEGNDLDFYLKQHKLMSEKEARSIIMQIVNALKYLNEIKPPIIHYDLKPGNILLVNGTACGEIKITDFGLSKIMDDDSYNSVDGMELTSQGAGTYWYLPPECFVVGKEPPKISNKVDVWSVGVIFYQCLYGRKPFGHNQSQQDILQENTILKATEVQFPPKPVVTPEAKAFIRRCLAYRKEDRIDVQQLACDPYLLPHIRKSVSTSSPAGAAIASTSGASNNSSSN

[5] = target: Ephrin type-A receptor 7 (Homo sapiens) (UniProt Q15375); assay: Inhibition of EPHA7 (unknown origin) assessed as residual activity at 1000 nM by KINOMEscan analysis relative to control
Chain of Ephrin type-A receptor 7 (Homo sapiens) (Q15375 28-998 limits assumed): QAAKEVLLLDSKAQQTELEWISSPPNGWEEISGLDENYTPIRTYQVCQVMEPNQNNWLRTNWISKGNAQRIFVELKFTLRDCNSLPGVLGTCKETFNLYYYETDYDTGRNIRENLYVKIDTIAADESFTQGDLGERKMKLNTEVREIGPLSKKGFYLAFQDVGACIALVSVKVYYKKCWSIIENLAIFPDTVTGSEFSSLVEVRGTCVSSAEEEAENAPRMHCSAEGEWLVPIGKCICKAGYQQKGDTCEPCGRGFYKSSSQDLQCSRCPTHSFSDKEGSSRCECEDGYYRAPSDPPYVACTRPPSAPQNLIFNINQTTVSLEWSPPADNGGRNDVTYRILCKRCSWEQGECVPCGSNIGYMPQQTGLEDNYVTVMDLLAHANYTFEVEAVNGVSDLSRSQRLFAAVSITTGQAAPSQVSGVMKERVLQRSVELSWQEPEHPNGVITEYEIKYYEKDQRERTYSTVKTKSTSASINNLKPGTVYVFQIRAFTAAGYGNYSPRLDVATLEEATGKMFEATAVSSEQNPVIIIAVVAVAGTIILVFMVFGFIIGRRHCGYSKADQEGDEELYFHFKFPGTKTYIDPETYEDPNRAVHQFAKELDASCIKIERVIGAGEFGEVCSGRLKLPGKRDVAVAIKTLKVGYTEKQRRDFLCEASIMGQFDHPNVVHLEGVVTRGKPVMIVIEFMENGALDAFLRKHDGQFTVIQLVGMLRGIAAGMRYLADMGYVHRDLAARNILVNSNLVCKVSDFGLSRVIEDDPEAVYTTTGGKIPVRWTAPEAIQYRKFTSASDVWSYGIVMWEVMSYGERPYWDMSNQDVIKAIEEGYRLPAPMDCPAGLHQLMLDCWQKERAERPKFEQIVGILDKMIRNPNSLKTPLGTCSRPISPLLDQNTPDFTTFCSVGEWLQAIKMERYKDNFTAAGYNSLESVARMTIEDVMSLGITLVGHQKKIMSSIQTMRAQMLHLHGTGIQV

[6] = target: Citron Rho-interacting kinase (Homo sapiens) (UniProt O14578); assay: Inhibition of CIT (unknown origin) assessed as residual activity at 1000 nM by KINOMEscan analysis relative to control
[7] = target: Rho-associated protein kinase 2 (Homo sapiens) (UniProt O75116); assay: Inhibition of ROCK2 (unknown origin) assessed as residual activity at 1000 nM by KINOMEscan analysis relative to control
Chain of Rho-associated protein kinase 2 (Homo sapiens) (O75116 whole entry, looked up): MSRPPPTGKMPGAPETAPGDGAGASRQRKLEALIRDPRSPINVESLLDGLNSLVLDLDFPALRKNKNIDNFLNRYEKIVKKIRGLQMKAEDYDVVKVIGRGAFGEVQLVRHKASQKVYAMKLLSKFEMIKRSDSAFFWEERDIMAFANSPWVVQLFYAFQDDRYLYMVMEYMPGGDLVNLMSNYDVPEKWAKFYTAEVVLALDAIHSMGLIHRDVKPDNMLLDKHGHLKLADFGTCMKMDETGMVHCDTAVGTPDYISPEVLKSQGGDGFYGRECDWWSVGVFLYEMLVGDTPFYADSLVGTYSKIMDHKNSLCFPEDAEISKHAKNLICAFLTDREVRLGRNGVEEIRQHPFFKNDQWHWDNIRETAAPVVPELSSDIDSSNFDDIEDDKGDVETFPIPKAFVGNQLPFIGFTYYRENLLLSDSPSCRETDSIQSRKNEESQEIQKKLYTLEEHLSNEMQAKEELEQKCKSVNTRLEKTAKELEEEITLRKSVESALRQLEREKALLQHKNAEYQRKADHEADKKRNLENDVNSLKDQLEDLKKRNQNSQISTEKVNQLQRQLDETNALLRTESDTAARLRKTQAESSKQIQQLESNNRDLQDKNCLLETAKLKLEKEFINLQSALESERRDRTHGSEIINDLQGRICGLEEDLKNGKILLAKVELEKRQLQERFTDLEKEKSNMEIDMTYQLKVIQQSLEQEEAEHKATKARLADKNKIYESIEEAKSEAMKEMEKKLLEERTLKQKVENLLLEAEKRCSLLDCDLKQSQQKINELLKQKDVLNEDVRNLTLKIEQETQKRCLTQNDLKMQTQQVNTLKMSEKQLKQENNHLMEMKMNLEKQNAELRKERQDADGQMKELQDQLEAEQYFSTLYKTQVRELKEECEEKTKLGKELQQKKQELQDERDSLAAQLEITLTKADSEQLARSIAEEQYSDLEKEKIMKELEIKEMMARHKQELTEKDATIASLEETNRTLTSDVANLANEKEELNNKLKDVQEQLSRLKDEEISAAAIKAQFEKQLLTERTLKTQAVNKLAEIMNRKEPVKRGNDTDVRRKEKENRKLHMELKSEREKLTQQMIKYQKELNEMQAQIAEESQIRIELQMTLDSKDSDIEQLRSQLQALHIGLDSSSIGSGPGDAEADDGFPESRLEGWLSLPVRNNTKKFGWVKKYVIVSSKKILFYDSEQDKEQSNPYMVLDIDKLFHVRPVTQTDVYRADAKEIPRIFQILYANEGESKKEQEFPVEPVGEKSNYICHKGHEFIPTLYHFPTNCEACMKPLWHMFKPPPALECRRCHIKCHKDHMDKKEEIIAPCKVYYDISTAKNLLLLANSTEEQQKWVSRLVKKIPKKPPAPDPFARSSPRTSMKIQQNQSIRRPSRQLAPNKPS

[8] = target: T1, SNF-related serine/threonine-protein kinase (Homo sapiens) (UniProt Q9NRH2); assay: Inhibition of SNRK (unknown origin) assessed as residual activity at 1000 nM by KINOMEscan analysis relative to control
T1 sequence (whole entry): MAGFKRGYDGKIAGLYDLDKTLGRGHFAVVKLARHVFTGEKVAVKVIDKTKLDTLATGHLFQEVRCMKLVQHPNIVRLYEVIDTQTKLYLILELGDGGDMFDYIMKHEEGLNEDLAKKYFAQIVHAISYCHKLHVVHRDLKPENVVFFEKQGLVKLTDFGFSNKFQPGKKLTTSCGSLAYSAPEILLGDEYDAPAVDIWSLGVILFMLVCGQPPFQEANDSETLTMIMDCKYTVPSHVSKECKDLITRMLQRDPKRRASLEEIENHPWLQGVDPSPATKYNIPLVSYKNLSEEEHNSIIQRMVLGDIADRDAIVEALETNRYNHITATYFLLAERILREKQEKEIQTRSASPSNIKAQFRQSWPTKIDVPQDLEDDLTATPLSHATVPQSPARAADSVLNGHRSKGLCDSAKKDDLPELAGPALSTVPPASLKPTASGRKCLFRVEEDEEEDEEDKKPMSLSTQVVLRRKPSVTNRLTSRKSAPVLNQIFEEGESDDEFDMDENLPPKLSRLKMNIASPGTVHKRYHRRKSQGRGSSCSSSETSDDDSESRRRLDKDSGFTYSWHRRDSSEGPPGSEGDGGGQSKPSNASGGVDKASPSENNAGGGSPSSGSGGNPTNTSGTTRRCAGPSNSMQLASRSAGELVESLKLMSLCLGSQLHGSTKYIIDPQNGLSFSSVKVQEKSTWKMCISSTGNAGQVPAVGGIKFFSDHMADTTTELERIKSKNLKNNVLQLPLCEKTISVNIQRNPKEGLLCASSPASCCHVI

[9] = target: T2, Ephrin type-A receptor 1 (Homo sapiens) (UniProt P21709); assay: Inhibition of EPHA1 (unknown origin) assessed as residual activity at 1000 nM by KINOMEscan analysis relative to control
T2 sequence (whole entry): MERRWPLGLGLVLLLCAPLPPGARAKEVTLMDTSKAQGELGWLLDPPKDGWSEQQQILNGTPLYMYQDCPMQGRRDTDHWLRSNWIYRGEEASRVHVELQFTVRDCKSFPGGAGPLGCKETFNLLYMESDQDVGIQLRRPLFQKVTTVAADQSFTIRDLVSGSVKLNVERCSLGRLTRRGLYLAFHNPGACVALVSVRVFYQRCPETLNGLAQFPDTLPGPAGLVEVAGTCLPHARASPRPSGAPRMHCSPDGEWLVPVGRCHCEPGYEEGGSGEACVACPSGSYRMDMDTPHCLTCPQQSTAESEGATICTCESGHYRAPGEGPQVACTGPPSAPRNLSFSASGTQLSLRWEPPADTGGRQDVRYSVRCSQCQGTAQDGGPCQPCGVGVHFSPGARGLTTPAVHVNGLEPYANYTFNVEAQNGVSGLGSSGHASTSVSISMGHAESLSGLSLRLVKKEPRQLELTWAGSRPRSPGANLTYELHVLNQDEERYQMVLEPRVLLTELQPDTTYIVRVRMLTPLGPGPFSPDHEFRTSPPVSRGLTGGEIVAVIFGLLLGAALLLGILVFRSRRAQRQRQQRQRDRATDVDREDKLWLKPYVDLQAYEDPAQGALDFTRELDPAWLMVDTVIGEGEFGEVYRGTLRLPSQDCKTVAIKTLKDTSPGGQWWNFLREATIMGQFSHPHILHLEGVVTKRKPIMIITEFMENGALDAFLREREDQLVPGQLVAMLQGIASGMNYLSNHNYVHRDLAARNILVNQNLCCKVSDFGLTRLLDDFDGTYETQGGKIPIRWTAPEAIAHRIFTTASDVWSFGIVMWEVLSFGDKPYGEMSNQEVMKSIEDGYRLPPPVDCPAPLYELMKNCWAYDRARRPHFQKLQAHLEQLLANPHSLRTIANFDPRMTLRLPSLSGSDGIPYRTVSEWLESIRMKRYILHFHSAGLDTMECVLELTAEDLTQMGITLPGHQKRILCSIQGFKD

[10] = target: Platelet-derived growth factor receptor beta (Homo sapiens) (UniProt P09619); assay: Inhibition of PDGFRB (unknown origin) assessed as residual activity at 1000 nM by KINOMEscan analysis relative to control
[11] = target: Protein kinase C eta type (Homo sapiens) (UniProt P24723); assay: Inhibition of PRKCH (unknown origin) assessed as residual activity at 1000 nM by KINOMEscan analysis relative to control
Chain of Protein kinase C eta type (Homo sapiens) (P24723 whole entry): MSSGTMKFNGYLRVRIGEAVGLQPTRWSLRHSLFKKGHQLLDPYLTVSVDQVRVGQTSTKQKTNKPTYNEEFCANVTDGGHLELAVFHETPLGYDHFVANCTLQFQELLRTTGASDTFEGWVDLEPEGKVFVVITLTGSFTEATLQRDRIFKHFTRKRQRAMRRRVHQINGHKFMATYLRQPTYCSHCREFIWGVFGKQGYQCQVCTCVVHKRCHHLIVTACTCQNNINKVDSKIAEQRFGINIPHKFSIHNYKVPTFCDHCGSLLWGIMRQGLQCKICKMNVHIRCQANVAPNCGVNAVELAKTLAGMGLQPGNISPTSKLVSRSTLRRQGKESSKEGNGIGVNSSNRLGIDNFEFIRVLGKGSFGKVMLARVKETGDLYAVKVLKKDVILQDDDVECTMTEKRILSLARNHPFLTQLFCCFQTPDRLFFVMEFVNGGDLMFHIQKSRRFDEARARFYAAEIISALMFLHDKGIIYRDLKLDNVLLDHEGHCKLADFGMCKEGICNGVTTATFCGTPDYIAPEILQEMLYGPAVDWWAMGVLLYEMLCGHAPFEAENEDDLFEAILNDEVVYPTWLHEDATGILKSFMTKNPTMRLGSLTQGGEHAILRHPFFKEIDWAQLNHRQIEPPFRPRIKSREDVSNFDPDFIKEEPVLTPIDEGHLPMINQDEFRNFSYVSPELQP

[12] = target: Serine/threonine-protein kinase N2 (Homo sapiens) (UniProt Q16513); assay: Inhibition of PKN2 (unknown origin) assessed as residual activity at 1000 nM by KINOMEscan analysis relative to control

Chain of Death-associated protein kinase 3 (Homo sapiens) (O43293 whole entry, looked up): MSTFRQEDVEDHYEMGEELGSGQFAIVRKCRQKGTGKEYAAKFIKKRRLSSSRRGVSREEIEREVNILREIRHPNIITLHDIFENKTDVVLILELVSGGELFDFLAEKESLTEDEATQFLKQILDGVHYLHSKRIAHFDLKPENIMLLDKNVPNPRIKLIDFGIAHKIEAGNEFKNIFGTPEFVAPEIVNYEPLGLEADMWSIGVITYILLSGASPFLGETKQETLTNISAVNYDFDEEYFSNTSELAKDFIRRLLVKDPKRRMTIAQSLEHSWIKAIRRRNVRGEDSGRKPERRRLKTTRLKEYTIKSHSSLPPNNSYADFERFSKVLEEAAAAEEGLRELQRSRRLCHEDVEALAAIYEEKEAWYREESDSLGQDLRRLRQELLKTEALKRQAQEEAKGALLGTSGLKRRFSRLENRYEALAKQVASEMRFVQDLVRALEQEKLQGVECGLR

Row | Structure (SMILES) | Activity [1] [%] | Activity [2] [%] | Activity [3] [%] | Activity [4] [%] | Activity [5] [%] | Activity [6] [%] | Activity [7] [%] | Activity [8] [%] | Activity [9] [%] | Activity [10] [%] | Activity [11] [%] | Activity [12] [%]
1 | COc1cc2nc(C)nc(N[C@H](C)c3cccc(-c4cn[nH]c4)c3)c2cc1OC | 76 | 0 | 100 | 83 | 100 | 93 | 72 | 95 | 39 | 100 | 95 | 78
2 | COc1cc2ncnc(N[C@H](C)c3cccc4ccccc34)c2cc1OC | 100 | 100 | 87 | 77 | 88 | 85 | 91 | 92 | 100 | 94 | 100 | 100
